Results reported in PubChem BioAssay (NCI).
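48-hour exposure; five concentrations; linearly interpolated endpoints. The concentration for full growth arrest is given as TGI.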

Key:
Experiment in all cases: DTP human tumour cell line panel, 48 h
[1] = test system: KM20L2 colon
[2] = test system: MDA-MB-231 breast
[3] = test system: LXFL 529 NSCLC
[4] = test system: BT-549 breast
[5] = test system: HT29 colon
[6] = test system: M19-MEL melanoma
[7] = test system: COLO 205 colon
[8] = test system: NCI-H522 lung
[9] = test system: MDA-MB-435
[10] = test system: HCC-2998 colon
[11] = test system: SF-539 CNS
[12] = test system: T-47D breast
[13] = test system: HOP-18 NSCLC
[14] = test system: MALME-3M melanoma
[15] = test system: PC-3 prostate
[16] = test system: UACC-62 melanoma
[17] = test system: RPMI-8226 leukemia
[18] = test system: NCI-H460 lung
[19] = test system: OVCAR-5 ovarian
[20] = test system: DLD-1 colon
[21] = test system: LOX IMVI melanoma
[22] = test system: A549 NSCLC
[23] = test system: DU-145 prostate
[24] = test system: TK-10 renal
[25] = test system: DMS 273 small cell lung
[26] = test system: HS 578T breast
[27] = test system: DMS 114 small cell lung
[28] = test system: SNB-19 CNS
[29] = test system: OVCAR-8 ovarian
[30] = test system: HOP-62 NSCLC
[31] = test system: HL-60(TB) leukemia
[32] = test system: SF-295 CNS
[33] = test system: NCI/ADR-RES ovarian
[34] = test system: SW-620 colon
[35] = test system: K-562 leukemia
[36] = test system: HCT-15 colon
[37] = test system: M14 melanoma
[38] = test system: SF-268 CNS
[39] = test system: OVCAR-4 ovarian
[40] = test system: HOP-92 NSCLC
[41] = test system: EKVX NSCLC
[42] = test system: CAKI-1 renal
[43] = test system: SNB-78 CNS
[44] = test system: A498 renal
[45] = test system: NCI-H23 lung
[46] = test system: SK-MEL-2 melanoma
[47] = test system: U251 CNS
[48] = test system: NCI-H226 lung
[49] = test system: MOLT-4 leukemia
[50] = test system: CCRF-CEM leukemia
[51] = test system: KM12 colon
[52] = test system: HCT-116 colon
[53] = test system: SNB-75 CNS
[54] = test system: IGROV1 ovarian
[55] = test system: SN12C renal
[56] = test system: OVCAR-3 ovarian
[57] = test system: MCF7 breast
[58] = test system: UO-31 renal
[59] = test system: SK-MEL-28 melanoma
[60] = test system: UACC-257 melanoma
[61] = test system: ACHN renal
[62] = test system: 786-0 renal
[63] = test system: SR leukemia
[64] = test system: SK-MEL-5 melanoma
[65] = test system: SK-OV-3 ovarian
[66] = test system: RXF 393 renal
[67] = test system: MDA-N
[68] = test system: XF 498 CNS

O=C1OC2C(O)COC2(O)C1(O)C(C[N+](=O)[O-])c1ccc(Cl)cc1 (stereo not drawn)
TGI [1]: 6.17 µM
TGI [2]: 48.7 µM
TGI [3]: 4.07 µM
TGI [4]: 13.1 µM
TGI [5]: 6.11 µM
TGI [6]: 6.84 µM
TGI [7]: 12.8 µM
TGI [8]: 23.7 µM
TGI [9]: 4.59 µM
TGI [10]: 13.4 µM
TGI [11]: 14 µM
TGI [12]: 43.2 µM
TGI [13]: 21.6 µM
TGI [14]: 30.3 µM
TGI [15]: 34.3 µM
TGI [16]: 22.8 µM
TGI [17]: 4.67 µM
TGI [18]: 34.7 µM
TGI [19]: 32.6 µM
TGI [20]: 3.93 µM
TGI [21]: 7.35 µM
TGI [22]: 37.1 µM
TGI [23]: 34.2 µM
TGI [24]: 25.9 µM
TGI [25]: 9.87 µM
TGI [26]: > 52.9 µM
TGI [27]: 9.99 µM
TGI [28]: 28.9 µM
TGI [29]: 51.1 µM
TGI [30]: 40 µM
TGI [31]: 10.5 µM
TGI [32]: 27.9 µM
TGI [33]: 72 µM
TGI [34]: 14.1 µM
TGI [35]: 22.4 µM
TGI [36]: 16.7 µM
TGI [37]: 13.6 µM
TGI [38]: 31.3 µM
TGI [39]: 19.4 µM
TGI [40]: 54.2 µM
TGI [41]: 51.4 µM
TGI [42]: 30.1 µM
TGI [43]: 71.6 µM
TGI [44]: 12.3 µM
TGI [45]: 18.6 µM
TGI [46]: 35.8 µM
TGI [47]: 25.5 µM
TGI [48]: 26.6 µM
TGI [49]: 10.9 µM
TGI [50]: 24.1 µM
TGI [51]: 18.3 µM
TGI [52]: 3.34 µM
TGI [53]: 20.1 µM
TGI [54]: 21.9 µM
TGI [55]: 37.9 µM
TGI [56]: 21.5 µM
TGI [57]: 5 µM
TGI [58]: 22.7 µM
TGI [59]: 10.8 µM
TGI [60]: 17.4 µM
TGI [61]: 26.7 µM
TGI [62]: 3.45 µM
TGI [63]: 19.6 µM
TGI [64]: 21.6 µM
TGI [65]: 31 µM
TGI [66]: 9.21 µM
TGI [67]: 6.98 µM

CCOc1cc2ccc3c4cc(OC)c(OC)cc4cnc3c2cc1OCC
TGI [1]: > 100 µM
TGI [3]: > 100 µM
TGI [5]: > 100 µM
TGI [6]: > 100 µM
TGI [7]: > 100 µM
TGI [8]: > 100 µM
TGI [68]: > 100 µM
TGI [10]: > 100 µM
TGI [11]: > 100 µM
TGI [13]: > 100 µM
TGI [14]: > 100 µM
TGI [16]: > 100 µM
TGI [17]: > 100 µM
TGI [18]: > 100 µM
TGI [19]: > 100 µM
TGI [20]: > 100 µM
TGI [22]: > 100 µM
TGI [24]: > 100 µM
TGI [27]: > 100 µM
TGI [28]: > 100 µM
TGI [29]: > 100 µM
TGI [30]: > 100 µM
TGI [32]: > 100 µM
TGI [34]: > 100 µM
TGI [35]: > 100 µM
TGI [36]: > 100 µM
TGI [37]: > 100 µM
TGI [38]: > 100 µM
TGI [39]: > 100 µM
TGI [41]: > 100 µM
TGI [42]: > 100 µM
TGI [43]: > 100 µM
TGI [44]: > 100 µM
TGI [45]: > 100 µM
TGI [46]: > 100 µM
TGI [47]: > 100 µM
TGI [49]: > 100 µM
TGI [50]: > 100 µM
TGI [51]: > 100 µM
TGI [52]: > 100 µM
TGI [53]: > 100 µM
TGI [54]: > 100 µM
TGI [55]: > 100 µM
TGI [56]: > 100 µM
TGI [58]: > 100 µM
TGI [59]: > 100 µM
TGI [60]: > 100 µM
TGI [61]: > 100 µM
TGI [62]: > 100 µM
TGI [64]: > 100 µM
TGI [65]: > 100 µM

COc1cc(OC)c2ssc3c(OC)cc(OC)c4ssc1c2-c43
TGI [1]: > 100 µM
TGI [3]: > 100 µM
TGI [5]: > 100 µM
TGI [6]: > 100 µM
TGI [7]: > 100 µM
TGI [8]: > 100 µM
TGI [68]: > 100 µM
TGI [10]: > 100 µM
TGI [11]: > 100 µM
TGI [13]: > 100 µM
TGI [14]: > 100 µM
TGI [16]: > 100 µM
TGI [18]: > 100 µM
TGI [19]: > 100 µM
TGI [20]: > 100 µM
TGI [21]: > 100 µM
TGI [22]: > 100 µM
TGI [24]: > 100 µM
TGI [25]: > 100 µM
TGI [27]: > 100 µM
TGI [28]: > 100 µM
TGI [29]: > 100 µM
TGI [30]: > 100 µM
TGI [32]: > 100 µM
TGI [34]: > 100 µM
TGI [35]: > 100 µM
TGI [36]: > 100 µM
TGI [37]: > 100 µM
TGI [38]: > 100 µM
TGI [39]: > 100 µM
TGI [41]: > 100 µM
TGI [42]: > 100 µM
TGI [43]: > 100 µM
TGI [44]: > 100 µM
TGI [45]: > 100 µM
TGI [46]: > 100 µM
TGI [47]: > 100 µM
TGI [48]: > 100 µM
TGI [49]: > 100 µM
TGI [50]: > 100 µM
TGI [51]: > 100 µM
TGI [52]: > 100 µM
TGI [53]: > 100 µM
TGI [54]: > 100 µM
TGI [55]: > 100 µM
TGI [56]: > 100 µM
TGI [59]: > 100 µM
TGI [60]: > 100 µM
TGI [61]: > 100 µM
TGI [62]: > 100 µM
TGI [64]: > 100 µM
TGI [65]: > 100 µM
TGI [66]: > 100 µM

C1CCC(OCc2nnn3c2CCC3)OC1 (stereo not drawn)
TGI [1]: > 100 µM
TGI [3]: > 100 µM
TGI [5]: > 100 µM
TGI [6]: > 100 µM
TGI [8]: > 100 µM
TGI [68]: > 100 µM
TGI [10]: > 100 µM
TGI [11]: > 100 µM
TGI [14]: > 100 µM
TGI [16]: > 100 µM
TGI [18]: > 100 µM
TGI [19]: > 100 µM
TGI [20]: > 100 µM
TGI [21]: > 100 µM
TGI [22]: > 100 µM
TGI [24]: > 100 µM
TGI [29]: > 100 µM
TGI [30]: > 100 µM
TGI [31]: > 100 µM
TGI [32]: > 100 µM
TGI [34]: > 100 µM
TGI [35]: > 100 µM
TGI [36]: > 100 µM
TGI [37]: > 100 µM
TGI [39]: > 100 µM
TGI [40]: > 100 µM
TGI [41]: > 100 µM
TGI [43]: > 100 µM
TGI [45]: > 100 µM
TGI [46]: > 100 µM
TGI [47]: > 100 µM
TGI [49]: > 100 µM
TGI [50]: > 100 µM
TGI [51]: > 100 µM
TGI [52]: > 100 µM
TGI [53]: > 100 µM
TGI [54]: > 100 µM
TGI [55]: > 100 µM
TGI [56]: > 100 µM
TGI [58]: > 100 µM
TGI [59]: > 100 µM
TGI [60]: > 100 µM
TGI [61]: > 100 µM
TGI [63]: > 100 µM
TGI [64]: > 100 µM
TGI [65]: > 100 µM
TGI [66]: > 100 µM
